Laboratory results as given in US20080200477A1, “Retinoid-Containing Compositions Having Reduced Irritation Effect” (priority 2004, published 2008).

How the values were obtained:
interleukin-8 (IL8) = assay: Retinol-induced interleukin-8 release from reconstituted epidermis (ELISA on culture medium); assay type: cell-based, human; conditions: for % reduction of IL8 release Control + retinol: measured after 48 hours and 96 hours (time not given)
Description: Samples of reconstituted epidermis were topically applied with gel/emulsions containing retinol (0.075 wt. %) and a series of test ingredients. The release of interleukin-8 (IL8) was measured in the culture medium after 48 hours by an ELISA method. No significant loss of viability was evidenced. No release of interleukin-1 (IL1) was observed.
Samples of reconstituted epidermis were topically applied with gel/emulsions containing retinol (0.075 wt. %) and one of the following test ingredients: Dragocalm® (at 1.5 wt. % and 3.5 wt. %), dipotassium glycyrrhenzinate (at 0.5 wt. %), Rona Care® ectoine (at 0.1 wt. %, 0.25 wt. %), and a willow herb (0.1 wt. %)/oat straw (0.1 wt. %) extract combination. The release of IL8 was measured in each culture medium after 48 hours and 96 hours by an ELISA method. No significant loss of viability was evidenced. No release of IL1 was observed.

[1] = tested on: retinol induced skin redness; assay: Repeated patch test on backs of human volunteers, cumulated redness score; assay type: in vivo; conditions: for inhibition of retinol-induced redness (in words): concentration not given, retinol 0.1 wt. %, human volunteers; for Score (cumulated redness score): 48 hours patches, three times a week during three weeks
Description: Based on the foregoing results, Dragocalm®, ectoine, and dipotassium glycyrrhenzinate were tested further on human volunteers for their potential to reduce retinol induced skin redness. Patches containing formulas comprising either retinol (0.1 wt. %) or retinol (0.1 wt. %) plus the test ingredient Dragocalm®, ectoine, or dipotassium glycyrrhenzinate were applied during 48 hours to the backs of volunteers three times a week during three weeks. Redness induced by the patches was examined and scored after each patch removal. Every individual score for each product were cumulated to give the final scores.

[2] = retinol 0.1 wt. % + test ingredient 0.25 wt. %
[3] = retinol 0.1 wt. % + test ingredient 0.5 wt. %

## CC(C)=CCC[C@](C)(O)[C@@H]1CC=C(C)CC1 [Alpha Bisabolol, reference compound]
interleukin-8 (IL8); Example 1, test ingredient 0.05 wt. % in gel/emulsion with retinol 0.075 wt. %, 48 hours
  % Reduction of Interleukin-8 compared with Control + Retinol: −4%

## CC1=NC(C(=O)O)CCN1 (centres unmarked) [Rona Care ® Ectoin, 1,4,5,6-tetrahydro-2-methyl-4-pyrimidine carboxylic acid]
interleukin-8 (IL8); Example 1, 1 wt. %, retinol 0.075 wt. %, 48 hours
  decrease of retinol induced IL8 release: 55%
interleukin-8 (IL8); Example 1, test ingredient 1 wt. % in gel/emulsion with retinol 0.075 wt. %, 48 hours
  % Reduction of Interleukin-8 compared with Control + Retinol: −55%
interleukin-8 (IL8); Example 2, 0.1 wt. %, retinol 0.075 wt. %
  activity on IL8 release (in words): no activity
interleukin-8 (IL8); Example 2, 0.25 wt. %, retinol 0.075 wt. %
  reduction (inhibition) of IL8 release: 60%
interleukin-8 (IL8); Example 2, test ingredient 0.1 wt. %, retinol 0.075 wt. %
  % reduction of IL8 release Control + retinol: −31%
interleukin-8 (IL8); Example 2, test ingredient 0.25 wt. %, retinol 0.075 wt. %
  % reduction of IL8 release Control + retinol: −60%
[1]
  inhibition of retinol-induced redness (in words): reduced redness but to a lesser extent
[1]; [2]
  % reduction (of redness score vs Control + Retinol 0.1 wt. %): −56%
  Score (cumulated redness score): 9.5

## CCCCCCCCCCCCCCCCCCOC(=O)[C@@]1(C)CC[C@]2(C)CC[C@]3(C)C(=CC(=O)[C@@H]4[C@@]5(C)CC[C@H](O)C(C)(C)[C@@H]5CC[C@]43C)[C@@H]2C1 [Stearyl Glycirrhezinate, reference compound]
interleukin-8 (IL8); Example 1, test ingredient 0.1 wt. % in gel/emulsion with retinol 0.075 wt. %, 48 hours
  % Reduction of Interleukin-8 compared with Control + Retinol: 26%

## Dipotassium Glycirrhezinate [reference compound]
interleukin-8 (IL8); Example 1, test ingredient 0.2 wt. % in gel/emulsion with retinol 0.075 wt. %, 48 hours
  % Reduction of Interleukin-8 compared with Control + Retinol: −29%
interleukin-8 (IL8); Example 2, 0.5 wt. %, retinol 0.075 wt. %
  reduction (inhibition) of IL8 release: 63%
interleukin-8 (IL8); Example 2, test ingredient 0.5 wt. %, retinol 0.075 wt. %
  % reduction of IL8 release Control + retinol: −63%
[1]
  inhibition of retinol-induced redness (in words): not effective
[1]; [3]
  % reduction (of redness score vs Control + Retinol 0.1 wt. %): −21%
  Score (cumulated redness score): 17
